Patent US8999940B2 (Ipsen Pharma S.A.S., priority 2008, dated 2015)
pKi: −log10 of the molar value.

Columns and labels:
[1] = target: T1, human recombinant GIP receptor (Homo sapiens, UniProt P48546); test: In vitro hGIP receptor binding assay
T1 construct: expressed in transfected cells; host or cells: CHO-K1 clonal cells (membrane preparation)
T1 sequence (P48546 22-466): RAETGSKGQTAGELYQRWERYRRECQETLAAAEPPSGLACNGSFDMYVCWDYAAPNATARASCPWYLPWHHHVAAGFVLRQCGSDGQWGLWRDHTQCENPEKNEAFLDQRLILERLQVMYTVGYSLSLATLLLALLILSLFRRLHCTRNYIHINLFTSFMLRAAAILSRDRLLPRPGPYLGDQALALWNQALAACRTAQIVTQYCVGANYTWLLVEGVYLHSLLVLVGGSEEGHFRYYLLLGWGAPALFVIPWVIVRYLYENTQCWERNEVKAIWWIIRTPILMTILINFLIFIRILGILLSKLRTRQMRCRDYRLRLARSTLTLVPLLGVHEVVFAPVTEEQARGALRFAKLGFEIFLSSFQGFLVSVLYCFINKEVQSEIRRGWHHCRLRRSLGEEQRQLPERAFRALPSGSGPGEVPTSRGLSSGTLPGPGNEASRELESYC
Protocol: A. In Vitro hGIP Receptor Binding Assay […] The incubations were terminated by rapid filtration through GF/C filters (pre-soaked in 0.5% polyethylenimine) using a Brandel filtration manifold. Each tube and filter were then washed three times with 5-ml aliquots of ice-cold buffer.

[2] = Rat plasma half-life assay; assay type: in vitro ADME; conditions: 37° C., LC-MS, read-out: Rat Plasma T½ (converted)
[3] = Human plasma half-life assay; assay type: in vitro ADME; conditions: 37° C., LC-MS, read-out: Human Plasma T½ (converted)

Structure (SMILES)	pKi [1]	half-life at 0.1 mg/ml [2] [h]	half-life at 0.1 mg/ml [3] [h]
CCCC[C@H](NC(=O)[C@H](C)NC(=O)[C@@H](NC(=O)C1(NC(=O)[C@H](Cc2ccc(O)cc2)NC(=O)[C@H](CC(=O)O)NC(=O)[C@H](CO)NC(=O)[C@@H](NC(=O)[C@H](Cc2ccccc2)NC(=O)[C@@H](NC(=O)CNC(=O)[C@H](CCC(=O)O)NC(=O)C(C)(C)NC(=O)[C@@H](N)Cc2ccc(F)c(F)c2)[C@@H](C)O)[C@@H](C)CC)CCCC1)[C@@H](C)CC)C(=O)N[C@@H](CC(=O)O)C(=O)N[C@@H](CCCCN)C(=O)N[C@H](C(=O)N[C@@H](Cc1c[nH]cn1)C(=O)N[C@@H](CCC(N)=O)C(=O)N[C@@H](CCC(N)=O)C(=O)N[C@@H](CC(=O)O)C(=O)N[C@@H](Cc1ccccc1)C(=O)N[C@H](C(=O)N[C@@H](CC(N)=O)C(=O)N[C@@H](Cc1c[nH]c2ccccc12)C(=O)N[C@@H](CC(C)C)C(=O)N[C@@H](CC(C)C)C(=O)N[C@@H](C)C(=O)N[C@@H](CCC(N)=O)C(=O)N[C@@H](CCCCN)C(=O)NCC(=O)N[C@@H](CCCCN)C(=O)N[C@@H](CCCCN)C(=O)N[C@@H](CC(N)=O)C(=O)N[C@@H](CC(=O)O)C(=O)N[C@@H](Cc1c[nH]c2ccccc12)C(=O)N[C@@H](CCCCN)C(=O)N[C@@H](Cc1c[nH]cn1)C(=O)N[C@@H](CC(N)=O)C(=O)N[C@H](C(=O)N[C@H](C(=O)N[C@@H](CCC(N)=O)C(=O)O)[C@@H](C)O)[C@@H](C)CC)C(C)C)[C@@H](C)CC [Example 24, (3,4F-Phe^1, Aib^2, A5c^11, Nle^14)hGIP(1-42)-OH]	7.80	> 74	> 74
CCCC[C@H](NC(=O)[C@H](C)NC(=O)[C@@H](NC(=O)C1(NC(=O)[C@H](Cc2ccc(O)cc2)NC(=O)[C@H](CC(=O)O)NC(=O)[C@H](CO)NC(=O)[C@@H](NC(=O)[C@H](Cc2ccccc2)NC(=O)[C@@H](NC(=O)CNC(=O)[C@H](CCC(=O)O)NC(=O)C(C)(C)NC(=O)[C@@H](N)Cc2cc(F)cc(F)c2)[C@@H](C)O)[C@@H](C)CC)CCCC1)[C@@H](C)CC)C(=O)N[C@@H](CC(=O)O)C(=O)N[C@@H](CCCCN)C(=O)N[C@H](C(=O)N[C@@H](Cc1c[nH]cn1)C(=O)N[C@@H](CCC(N)=O)C(=O)N[C@@H](CCC(N)=O)C(=O)N[C@@H](CC(=O)O)C(=O)N[C@@H](Cc1ccccc1)C(=O)N[C@H](C(=O)N[C@@H](CC(N)=O)C(=O)N[C@@H](Cc1c[nH]c2ccccc12)C(=O)N[C@@H](CC(C)C)C(=O)N[C@@H](CC(C)C)C(=O)N[C@@H](C)C(=O)N[C@@H](CCC(N)=O)C(=O)N[C@@H](CCCCN)C(=O)NCC(=O)N[C@@H](CCCCN)C(=O)N[C@@H](CCCCN)C(=O)N[C@@H](CC(N)=O)C(=O)N[C@@H](CC(=O)O)C(=O)N[C@@H](Cc1c[nH]c2ccccc12)C(=O)N[C@@H](CCCCN)C(=O)N[C@@H](Cc1c[nH]cn1)C(=O)N[C@@H](CC(N)=O)C(=O)N[C@H](C(=O)N[C@H](C(=O)N[C@@H](CCC(N)=O)C(=O)O)[C@@H](C)O)[C@@H](C)CC)C(C)C)[C@@H](C)CC [Example 25, (3,5F-Phe^1, Aib^2, A5c^11, Nle^14)hGIP(1-42)-OH]	7.59	> 74	> 74
CC[C@H](C)[C@H](NC(=O)[C@H](CCCCN)NC(=O)[C@H](CC(=O)O)NC(=O)[C@H](CCSC)NC(=O)[C@H](C)NC(=O)[C@@H](NC(=O)C1(NC(=O)[C@H](Cc2ccc(O)cc2)NC(=O)[C@H](CC(=O)O)NC(=O)[C@H](CO)NC(=O)[C@@H](NC(=O)[C@H](Cc2ccccc2)NC(=O)[C@@H](NC(=O)CNC(=O)[C@H](CCC(=O)O)NC(=O)C(C)(C)NC(=O)[C@@H](N)Cc2cccc(O)c2)[C@@H](C)O)[C@@H](C)CC)CCCC1)[C@@H](C)CC)C(=O)N[C@@H](Cc1c[nH]cn1)C(=O)N[C@@H](CCC(N)=O)C(=O)N[C@@H](CCC(N)=O)C(=O)N[C@@H](CC(=O)O)C(=O)N[C@@H](Cc1ccccc1)C(=O)N[C@H](C(=O)N[C@@H](CC(N)=O)C(=O)N[C@@H](Cc1c[nH]c2ccccc12)C(=O)N[C@@H](CC(C)C)C(=O)N[C@@H](CC(C)C)C(=O)N[C@@H](C)C(=O)N[C@@H](CCC(N)=O)C(=O)N[C@@H](CCCCN)C(=O)NCC(=O)N[C@@H](CCCCN)C(=O)N[C@@H](CCCCN)C(=O)N[C@@H](CC(N)=O)C(=O)N[C@@H](CC(=O)O)C(=O)N[C@@H](Cc1c[nH]c2ccccc12)C(=O)N[C@@H](CCCCN)C(=O)N[C@@H](Cc1c[nH]cn1)C(=O)N[C@@H](CC(N)=O)C(=O)N[C@H](C(=O)NC1(C(=O)N[C@@H](CCC(N)=O)C(=O)O)CCCC1)[C@@H](C)CC)C(C)C [Example 26, (30H-Phe^1, Aib^2, A5c^11, 41)hGIP(1-42)-OH]	8.12	48.8	26.2
CC[C@H](C)[C@H](NC(=O)[C@H](CCCCN)NC(=O)[C@H](CC(=O)O)NC(=O)[C@H](CCSC)NC(=O)[C@H](C)NC(=O)[C@@H](NC(=O)C1(NC(=O)[C@H](Cc2ccc(O)cc2)NC(=O)[C@H](CC(=O)O)NC(=O)[C@H](CO)NC(=O)[C@@H](NC(=O)[C@H](Cc2ccccc2)NC(=O)[C@@H](NC(=O)CNC(=O)[C@H](CCC(=O)O)NC(=O)C(C)(C)NC(=O)[C@@H](N)Cc2ccc(O)c(O)c2)[C@@H](C)O)[C@@H](C)CC)CCCC1)[C@@H](C)CC)C(=O)N[C@@H](Cc1c[nH]cn1)C(=O)N[C@@H](CCC(N)=O)C(=O)N[C@@H](CCC(N)=O)C(=O)N[C@@H](CC(=O)O)C(=O)N[C@@H](Cc1ccccc1)C(=O)N[C@H](C(=O)N[C@@H](CC(N)=O)C(=O)N[C@@H](Cc1c[nH]c2ccccc12)C(=O)N[C@@H](CC(C)C)C(=O)N[C@@H](CC(C)C)C(=O)N[C@@H](C)C(=O)N[C@@H](CCC(N)=O)C(=O)N[C@@H](CCCCN)C(=O)NCC(=O)N[C@@H](CCCCN)C(=O)N[C@@H](CCCCN)C(=O)N[C@@H](CC(N)=O)C(=O)N[C@@H](CC(=O)O)C(=O)N[C@@H](Cc1c[nH]c2ccccc12)C(=O)N[C@@H](CCCCN)C(=O)N[C@@H](Cc1c[nH]cn1)C(=O)N[C@@H](CC(N)=O)C(=O)N[C@H](C(=O)NC1(C(=O)N[C@@H](CCC(N)=O)C(=O)O)CCCC1)[C@@H](C)CC)C(C)C [Example 27, (30H-Tyr^1, Aib^2, A5c^11, 41)hGIP(1-42)-OH]	8.17	5.1	7
CC[C@H](C)[C@H](NC(=O)[C@H](CCCCN)NC(=O)[C@H](CC(=O)O)NC(=O)[C@H](CCSC)NC(=O)[C@H](C)NC(=O)[C@@H](NC(=O)C1(NC(=O)[C@H](Cc2ccc(O)cc2)NC(=O)[C@H](CC(=O)O)NC(=O)[C@H](CO)NC(=O)[C@@H](NC(=O)[C@H](Cc2ccccc2)NC(=O)[C@@H](NC(=O)CNC(=O)[C@H](CCC(=O)O)NC(=O)C(C)(C)NC(=O)[C@@H](N)Cc2ccc(OC(C)=O)cc2)[C@@H](C)O)[C@@H](C)CC)CCCC1)[C@@H](C)CC)C(=O)N[C@@H](Cc1c[nH]cn1)C(=O)N[C@@H](CCC(N)=O)C(=O)N[C@@H](CCC(N)=O)C(=O)N[C@@H](CC(=O)O)C(=O)N[C@@H](Cc1ccccc1)C(=O)N[C@H](C(=O)N[C@@H](CC(N)=O)C(=O)N[C@@H](Cc1c[nH]c2ccccc12)C(=O)N[C@@H](CC(C)C)C(=O)N[C@@H](CC(C)C)C(=O)N[C@@H](C)C(=O)N[C@@H](CCC(N)=O)C(=O)N[C@@H](CCCCN)C(=O)NCC(=O)N[C@@H](CCCCN)C(=O)N[C@@H](CCCCN)C(=O)N[C@@H](CC(N)=O)C(=O)N[C@@H](CC(=O)O)C(=O)N[C@@H](Cc1c[nH]c2ccccc12)C(=O)N[C@@H](CCCCN)C(=O)N[C@@H](Cc1c[nH]cn1)C(=O)N[C@@H](CC(N)=O)C(=O)N[C@H](C(=O)NC1(C(=O)N[C@@H](CCC(N)=O)C(=O)O)CCCC1)[C@@H](C)CC)C(C)C [Example 29, [Tyr(Ac)^1, Aib^2, A5c^11, 41]hGIP(1-42)-OH]	9.14	18.9	29.5
